Each compound was assayed on BeWo (choriocarcinoma) cells (assay: MTT cancer cell viability assay, BeWo). Conditions: Homo sapiens, 48 h.
Assay type: cell-based
Protocol: A possible therapeutic application of GLUT3 inhibitors is in oncology, especially for cancers in which GLUT3 is a poor prognosis marker. We tested the effect of GLUT3 inhibitors on the cell viability of several different cancer lines: myeloid leukemia (HL60 and U937), lung cancer (A549), colorectal adenocarcinoma (Caco-2), breast cancer (MCF7), hepatocellular carcinoma (HepG2), and choriocarcinoma (BeWo) cells. GLUT3 inhibitors, at five different concentrations, ranging from 2 to 100 µM, were incubated with cancer cells for 48 h. Then, cell viability was assessed with the MTT assay. […] G3iC and G3iD also affected the leukemia cell lines but at double the concentrations of G3iB and G3iE. […] G3iB had some cytotoxic activity (CC50 < 50 µM) against the highest number of cancer cell lines (HL60, U937, A549, HepG2, and MCF7).
Cancer cell viability in the presence of GLUT3 inhibitors was assayed using the MTT Cell Viability Kit (Biotium Inc, Freemont, CA) according to manufacturer’s instructions. Cancer cells were grown in the corresponding medium, at 37 °C and 5% CO2 in a humidified incubator. The media (Gibco) for leukemia cells (HL60 and U937), A549, MCF7, BeWo, and HepG2 cells were RPMI 1640, Ham’s F-12K, DMEM:F-12, Ham’s F-12K, and EMEM, respectively, all supplemented with 10% (v/v) fetal bovine serum (HyClone). Caco-2 cells were grown in EMEM supplemented with 20% (v/v) fetal bovine serum. Cells were detached from the culture flasks with Accutase (Innovative Cell Technologies, Inc., San Diego, CA) according to manufacturer’s instructions. Cells were seeded in 96-well plates, at a density of ~ 30,000 cells/well (in 100 µl fresh media) and incubated with varying concentrations of GLUT3 inhibitors for 48 h, at 37 °C and 5% CO2 in a humidified incubator. The inhibitors were dissolved in DMSO, at 100× the final concentration, so that 1 µl of the stock inhibitor concentration was added per well, making the final DMSO concentration 1% (v/v). Therefore, controls for 100% cell viability were cells with 1% (v/v) DMSO without the inhibitors. Controls for 0% cell viability were cells treated with 0.3% (v/v) Tween 20. For MTT assay, 10 µl of MTT reagent was added in each well followed by 3–4 h incubation at 37 °C and 5% CO2 in a humidified incubator. After thoroughly mixing in 200 µl DMSO in each well, the plates were put into a plate reader (BioTek Synergy H1), and the absorbances at 570 nm and 630 nm were measured with Gen5 program (BioTek Inc.). The experimental values represent Abs570 nm-Abs630 nm with each inhibitor condition and control being the average of three wells.
Supplementary Figure S8. Effect of GLUT3 inhibitors on the viability of various cancer cell lines. Cell viability was determined by MTT assay in A549 (lung cancer), BeWo (choriocarcinoma), Caco-2 (colon cancer), HepG2 (liver cancer), HL-60 (leukemia), MCF7 (breast cancer), and U937 (histiocytic lymphoma) cell lines. GLUT3 inhibitors at concentrations of 2, 5, 10, 20, 50, and 100 µM were incubated with cells in 96-well plates for 48 hours before the addition of the MTT reagent.
With `CC(=O)Nc1ccc(S(=O)(=O)Nc2ccc(Nc3cc(N(C)C)nc(C)n3)cc2)cc1` [G3iA, N-(4-{[(4-{[6-(dimethylamino)-2-methylpyrimidin-4-yl]amino}phenyl)amino]sulfonyl}phenyl)acetamide] the CC50 was > 100 µM.
In the case of `COc1ccccc1-n1c(/C=C/c2ccc(O)cc2)nc2ccc(Br)cc2c1=O` [G3iB, 6-bromo-2-[(E)-2-(4-hydroxyphenyl)ethenyl]-3-(2-methoxyphenyl)quinazolin-4(3H)-one], the CC50 is reported as > 50 µM.
For `Cc1cccnc1OC1CCN(c2cc(N3CCCC3CO)ncn2)CC1` (stereo not drawn) [G3iC], the CC50 was > 100 µM.
`Cc1cc(NC(=O)CCC2Cc3ccccc3NC2=O)nc(-c2ccccc2)n1` (stereo not drawn) [G3iD] was tested, and the CC50 was > 100 µM.
With `O=C(Nc1cccc(Cl)c1)c1cccc(NC(=O)c2cccc([N+](=O)[O-])c2)c1` [G3iE, N-{3-[(3-chloroanilino)carbonyl]phenyl}-3-nitrobenzamide] the CC50 was > 50 µM.
`Cc1ccccc1CN(Cc1nnc(C(C)(C)C)o1)c1ccc2nc(O)[nH]c2c1` [G3iF] gave a CC50 of ~100 µM.
